Assay results published in patent publication US20240041050A1, “CELL PENETRATING PEPTIDE MEDIATED RNA TRANSDUCTION WITHIN INSECT CELLS” (PIONEER HI-BRED INTERNATIONAL, INC., priority 2020, published 2024).
Peptide text beside a SMILES is read from it.

What was measured:
[1] = tested on: Sf9 cells; experiment: CPP-mediated delivery of mCherry mRNA cargo into insect cells; assay type: cell-based, Spodoptera frugiperda; conditions: complex of 75 μM unlabeled CPP and 10 μg mCherry mRNA, overnight
Source text: (§1) Sample preparation and analysis methods were based on those previously reported (Jafari et al. (201 4) “Serum stability and physicochemical characterization of a novel amphipathic peptide C6M 1 for siRNA delivery”, PLoS One, 9(5), e97797; and Gillet et al. (2017) “Investigating Engineered Ribonucleoprotein Particles to Improve Oral RNAi Delivery in Crop Insect Pests”, Frontiers in Physiology, 8(256), doi: 10.3389/fphys.2017.00256). Reagents are described in Examples 1 and 2. Nanocomplex samples were prepared in one of several ways, depending on type of CPP, RNA, or assay. […] Reaction volumes added to cells were 6.38 μL CPP and 6.38 μL mRNA. Final optimal CPP concentration was assessed by amount of fluorescent signal apparent within cells. For insect cell-based assays with CPP-YFP·Cy3-dsRNA or CPP·dsRNA, first a complex formation solution was prepared in molecular biology-grade water containing 90 mg·mL^−1 maltose, 9 mg·mL^−1 mannitol, 392. 16 mM CaCI2, pH 7.0, and vacuum-filtered using Corning™ Disposable Vacuum Filter and Storage System containing a cellulose nitrate filter. Then, increasing amounts of CPP-YFP were added to Cy3-dsRNA, from a molar ratio (CPP-YFP:Cy3-dsRNA) of 1:4 through 8:1 and incubated protected from light at 25° C. for 90 minutes prior to assessment via gel shift and DLS. Reaction volumes added per cell well were comprised of 17 μL reaction solution, 1 μL CPP, 1 μL dsRNA, and 1 μL molecular biology grade water; reaction sizes for larger total volumes were increased in increments of 20 μL and component ratio was held constant to maintain an ionic strength of […]. Final optimal molar ratio selected for cell experiments were determined by increase of the apparent size of the Cy3-dsRNA band on a native agarose gel (FIG. 2A and FIG. 2B), and/or appearance and increase in size of the complex peak detected by a Zetasizer Ultra (Malvern Panalytical, Malvern, United Kingdom) DLS instrument (FIG. 2C). […] Final optimal BAPC1 concentration was assessed by amount of fluorescent signal apparent within cells. […]

[2] = tested on: DvWL2 cells; experiment: as above; assay type: cell-based, Diabrotica virgifera virgifera; conditions: complex of 75 μM unlabeled CPP and 10 μg mCherry mRNA, overnight
Source text: as §1

Structure (SMILES): N=C(N)NCCC[C@H](NC(=O)[C@H](Cc1c[nH]c2ccccc12)NC(=O)[C@H](CCCNC(=N)N)NC(=O)[C@@H](N)CS)C(=O)N[C@@H](Cc1c[nH]c2ccccc12)C(=O)N[C@@H](CCCCN)C(=O)N[C@@H](CS)C(=O)N[C@@H](CS)C(=O)N[C@@H](CCCCN)C(=O)N[C@@H](CCCCN)C(=O)O [CyLoP-1, CRWRWKCCKK] (H-CRWRWKCCKK-OH; N-terminus and C-terminus assumed)
- fluorescent protein translated from delivered mCherry mRNA (fluorescent signal inside cells) [1]: Translation of mRNA into a functional fluorescent protein occurred
- fluorescent protein translated from delivered mCherry mRNA (fluorescent signal inside cells) [2]: Translation of mRNA into a functional fluorescent protein occurred
